Consider 7 compounds from paper PMC4876444, “Two-Photon Enzymatic Probes Visualizing Sub-cellular/Deep-brain Caspase Activities in Neurodegenerative Models” (Scientific Reports, 2016).

Where a SMILES comes first, the peptide text is derived from it. The star is where a group is joined. NH(6-Ac-2-naphthyl) = CC(=O)c1ccc2cc(N*)ccc2c1; Cbz = O=C(OCc1ccccc1)*; CH2F = FC*

The subject of data set [1] is caspases (-1, -3, -6, -8 and -9). The experiment in a line: In vitro selectivity against a panel of recombinant caspases. It is filed as biochemical, Human. Particulars: probe 6 μM, uniform conditions with caspases -1, -3, -6, -8, -9, 2-h incubation at room temperature, tetrapeptide-AMC as references. As for the experimental part:
Figure 2 Photophysical and enzymatic properties of caspase probes. (a) Photophysical and kinetic properties of probes and free dyes. All measurements were taken in 50 mM HEPES, 50 mM NaCl, 0.1% CHAPS, 10 mM EDTA, 5% glycerol, 10 mM DTT, at pH = 7.2. (b) Time-dependent ratiometric fluorescence changes of C1RB (6 μM) incubated with caspase-1 (10 nM) over 2 h at room temperature. Data were obtained by plotting the normalized ratio of fluorescence intensity at 500 nm (F500 nm) over that at 450 nm (F450 nm). (Inset) time-dependent fluorescence emission spectra with λex = 350 nm. (c) Time-dependent “Turn-ON” effect of C1FS (6 μM) incubated with caspase-1 (10 nM) measured and normalized at 460 nm (F460 nm) over 2 h at room temperature, with the corresponding fluorescence emission spectra (inset). λex = 350 nm. […] S and N represent the fluorescence emission intensity of each reaction solution in the presence (S) and absence (N) of caspase-1. […] Normalized, relative fluorescence (RFU) values were obtained after 2-h incubation at room temperature. […]
Enzyme kinetics. […] Detailed kinetic properties of these probes were measured with target recombinant caspases using commercial tetrapeptide-AMC fluorogenic substrates as references at 25 °C in 384-well plates (Greiner Bio-One #781900). […]
shaking at 150 rpm for 24 h at 25 °C, a small portion of the reaction was analyzed by LC-MS (IT-TOF). […]

Assay in data set [2]: not given
This is another data set of the same source.

Assay in data set [3]: not given
The source holds these as a separate data set.

The test system of data set [4] is NIH/3T3, BV2 and HeLa cells. Nature of the data set: XTT cytotoxicity assay. It is filed as cell-based, mouse, human. To be noted: XTT assay, 12, 30, 60, 120 μM, 24 h. As for the experimental part: Supplementary Figure 4. Cytotoxicity of two-photon enzymatic probes (12, 30, 60, 120 μM) in mammalian cells (NIH/3T3, BV2 and HeLa) after incubation for 24 h, as determined by XTT assay. […]
Detection of caspase activities in mammalian cells and tissues
Cell culture. The mouse embryonic fibroblast cell line (NIH/3T3), mouse microglial cell line (BV2) and human epithelial carcinoma cell line (HeLa) used in our experiments were cultured in Dulbecco’s Modified Eagle's Medium (DMEM) supplemented with 10% (for NIH/3T3 and HeLa) or 5% (for BV2) fetal bovine serum (FBS), 100.0 mg/L streptomycin and 100 IU/mL penicillin in a humidified atmosphere of 5% CO2 at 37 °C.
XTT assay. The cytotoxicity of our probes was determined by using the XTT colorimetric cell proliferation kit (Roche) following manufacturer’s guidelines. Briefly, NIH/3T3, BV2 and HeLa cells were seeded in 20~30% confluency (since they will reach >50% confluency within 24 h) into 96-well plates and incubated overnight before the addition of probes with concentrations of 12 μM, 30 μM, 60 μM and 120 μM, respectively. Probes were applied from DMSO stocks whereby DMSO never exceeded 1% in the final solution. The same volume of DMSO was used as a negative control; and the same volume of STS (200 nM) was used as a positive control. After a total treatment time of 24 h, proliferation was assayed using the XTT assay (Supplementary Fig. 4). […]

The subject of data set [5] is caspase-3-like activities in STS-induced BV2 and HeLa cells. Nature of the data set: TPFM live-cell imaging of STS-induced apoptotic cells. It is filed as cell-based, mouse, human. As for the experimental part: Figure 3 Bioimaging of active caspases in live cells. TPFM (λex = 760 nm; λem = 480-550 nm for all AAN-probes) of STS-induced (a) BV2 cells (2 μM, 4 h) and (b) HeLa cells (1 μM, 4 h) using C3RA/C8RA (24 μM, 1 h). Panels 3/6: cells pretreated with Z-VAD(OMe)-FMK (50 μM, 1 h) before STS addition. Panels 1/4: normal cells (DMSO). (c) WB analysis of cleaved caspase-3/-8 from (a,b). (d) TPFM of normal/apoptotic Hela cells imaged by C3RA (24 μM, up) or Ac-DEVD-AMC (40 μM, down; λem = 420–500 nm). Panels 1/3: normal cells. Panels 2/4: STS-induced cells (1 μM, 4 h). Bottom inset: bright field. Top inset: one-photon images (λex = 405 nm). (e) Real-time imaging of caspase-3/-8-like activities in live BV2 cells using 24 μM of C3RA (top)/C8RA (bottom) upon STS (2 μM) stimulation over 2 h. (f) Graphical quantification of RFU extracted from (e). (g) WB analysis of time-dependent caspase-3/-8 cleavage from STS-induced (2 μM) BV2 lysates. (h) WB analysis of time-dependent caspase-3/-7/-8 activation by detection of cleaved caspase-3/-7/-8 from lysates of HeLa cells stimulated with STS (2 μM). (i) RFU from real-time imaging of caspase-3-like activity in live HeLa cells with C3RA/C3RM/C3RE (24 μM, added 1 h before STS) upon STS (2 μM) stimulation. (j) Representative images (t = 60 min) from (i). (k) IF of STS-stimulated (2 μM, 2 h) HeLa cells by anti-caspase-3 (p17) antibody (red) with 3D projections of z-stack images at 90° view and merged with MitoTracker (green, left) or ER tracker (cyan, right). (l) TPFM of caspase-1 activation in primary cortical neurons upon glucose deprivation (GD, 8 h) followed by 1-h incubation with C1RB (24 μM) or C1FS (12 μM; λem = 450–550 nm). Inset: bright field images. NC: neuron cells incubated in normal neurobasal medium. Scale bar = 10 μm in all images.
NIH/3T3, HeLa and BV2 cell lines used in our experiments were cultured in DMEM medium supplemented with 10% (for NIH/3T3 and HeLa) or 5% (for BV2) fetal bovine serum (FBS), with 100.0 mg/L streptomycin and 100 IU/mL penicillin. […]

Compound `CC[C@H](C)[C@H](NC(=O)[C@H](CCC(=O)O)NC(=O)[C@@H](NC(C)=O)C(C)C)C(=O)N[C@@H](CC(=O)O)C(=O)Nc1ccc2cc(C(C)=O)ccc2c1` [C6RA, Ac-VEID-AAN] (Ac-VEID-{NH(6-Ac-2-naphthyl)}) showed a λem (emission maximum) of 448 nm. The “probe selectivity profile towards intended caspase” value in data set [1] was “comparatively poor selectivity profiles”. The compound further yielded a λex (absorption/excitation maximum) in data set [2] of 316 nm. The compound further registered a δΦ (two-photon action cross-section) in data set [3] of 1.8 GM.
As to `CC(=O)c1ccc2cc(NC(=O)[C@H](CC(=O)O)NC(=O)[C@@H](NC(=O)[C@H](CCC(=O)O)NC(=O)[C@H](CC(=O)O)NC(=O)CCC[P+](c3ccccc3)(c3ccccc3)c3ccccc3)C(C)C)ccc2c1` [C3RM, TPP-DEVD-AAN], the λem (emission maximum) was found to be 448 nm. Moreover, in data set [4], the cytotoxicity result was “minimally cytotoxic”. The compound further yielded a λex (absorption/excitation maximum) in data set [2] of 317 nm. The δΦ (two-photon action cross-section) in data set [3] worked out at 1.4 GM.
`CC(=O)N[C@@H](CC(C)C)C(=O)N[C@@H](CCC(=O)O)C(=O)N[C@@H](Cc1c[nH]cn1)C(=O)N[C@@H](CC(=O)O)C(=O)Nc1ccc2cc(C(C)=O)ccc2c1` [C9RA, Ac-LEHD-AAN] (Ac-LEHD-{NH(6-Ac-2-naphthyl)}) came in with a λem (emission maximum) of 448 nm. Besides, the “probe selectivity profile towards intended caspase” value in data set [1] was “comparatively poor selectivity profiles”. In data set [2], this compound yielded a λex (absorption/excitation maximum) of 316 nm. Also, the δΦ (two-photon action cross-section) in data set [3] was 3.2 GM.
Consider `CC(=O)N[C@@H](CC(=O)O)C(=O)N[C@@H](CCC(=O)O)C(=O)N[C@H](C(=O)N[C@@H](CC(=O)O)C(=O)Nc1ccc2c(C)cc(=O)oc2c1)C(C)C` [Ac-DEVD-AMC], for which, in data set [5] (live HeLa cells, STS 1 μM 4 h, 40 μM, λex 760 nm), the “fluorescence properties for imaging caspase-3-like activities under two-photon settings, compared to C3RA” value is reported as “significantly poorer fluorescence properties”.
In turn, `CC(=O)N[C@@H](Cc1ccc(O)cc1)C(=O)N[C@H](C(=O)N[C@@H](C)C(=O)N[C@@H](CC(=O)O)C(=O)Nc1ccc2cc(C(C)=O)ccc2c1)C(C)C` returned a λem (emission maximum) of 448 nm. Also, the λex (absorption/excitation maximum) in data set [2] stood at 316 nm. In data set [3], this compound came in with a δΦ (two-photon action cross-section) of 6.9 GM.
For the compound Cbz-Val-Ala-Asp(OMe)-CH2F, the “effect of inhibitor on C3RA fluorescence in STS-induced cells” value in data set [5] (inhibitor 50 μM, 1 h before STS, BV2 and HeLa cells, C3RA 24 μM) is recorded as “inhibited”.
Turning to `CC[C@H](C)[C@H](NC(C)=O)C(=O)N[C@@H](CCC(=O)O)C(=O)N[C@H](C(=O)N[C@@H](CC(=O)O)C(=O)Nc1ccc2cc(C(C)=O)ccc2c1)[C@@H](C)O` [C8RA, Ac-IETD-AAN] (Ac-IETD-{NH(6-Ac-2-naphthyl)}), the λem (emission maximum) amounted to 448 nm. Moreover, in data set [4], the cytotoxicity result is “minimally cytotoxic”. In data set [2], this compound displayed a λex (absorption/excitation maximum) of 316 nm. Also, the δΦ (two-photon action cross-section) in data set [3] was found to be 2.4 GM.
